Reference: patent publication EP4603105A1, “PHARMACEUTICAL COMPOSITION CONTAINING CYCLIC COMPOUND HAVING SELECTIVE KRAS INHIBITORY EFFECT AGAINST HRAS AND NRAS” (CHUGAI SEIYAKU KABUSHIKI KAISHA, priority 2022, dated 2024)
Where two headings read alike, the source gives them in different places.

Legend:
[1] = system: human lung cancer strain NCI-H441; experiment: NCI-H441 cell proliferation inhibitory activity (CellTiter-Glo, 4 days); assay type: cell-based; settings: read-out: NCl-H441 IC50
Method in brief: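 Proliferation was scored by […] measured after the reagent was added to cultures kept at 37°C in 5% carbon dioxide.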

[2] = molecular target: GDP-bound NRAS wild-type protein (Homo sapiens, UniProt P01111); experiment: Binding to NRAS by surface plasmon resonance (SPR), KD and KD ratio to KRAS
Method in brief: (§1)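 Single-cycle kinetics on GDP-loaded biotin-Avi RAS captured to ~100–300 RU; 75 s ascending injections, 100 µL/min, 30°C. HBS pH 7.4 + 10 mM MgCl2/10 µM GDP/4% DMSO. 1:1 fit, KD.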

[3] = molecular target: HRAS wild-type protein (Homo sapiens, UniProt P01112); experiment: Binding to HRAS by surface plasmon resonance (SPR), KD and KD ratio to KRAS
Method in brief: as §1

[4] = molecular target: GDP-bound KRAS wild-type protein (Homo sapiens, UniProt P01116); experiment: Binding to KRAS by surface plasmon resonance (SPR), dissociation constant KD
Method in brief: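 GDP-bound biotin-Avi RAS captured at ~100–300 RU, 30°C, pH 7.4 HBS containing 10 µM GDP, 10 mM MgCl2, 1 mM DTT, 0.01% Tween 20 and 4% DMSO. KD by 1:1 fitting.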

[5] = ratio of KD for GDP-bound NRAS wild-type protein to KD for KRAS
[6] = ratio of KD for HRAS wild-type protein to KD for KRAS
[7] = 50% proliferation inhibitory concentration, four days
[8] = ratio of KD with respect to GDP-bound NRAS wild-type protein to KD with respect to KRAS
[9] = ratio of KD with respect to HRAS wild-type protein to KD with respect to KRAS
[10] = Single Cycle Kinetics, 1:1 binding model

Sequence of GDP-bound NRAS wild-type protein (P01111 whole entry): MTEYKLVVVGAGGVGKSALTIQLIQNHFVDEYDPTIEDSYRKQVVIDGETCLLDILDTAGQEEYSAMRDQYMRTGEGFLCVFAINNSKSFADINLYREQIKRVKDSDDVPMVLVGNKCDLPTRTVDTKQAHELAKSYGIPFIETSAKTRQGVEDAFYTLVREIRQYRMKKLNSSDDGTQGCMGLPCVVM
Sequence of GDP-bound KRAS wild-type protein (P01116 1-188 isoform P01116-2): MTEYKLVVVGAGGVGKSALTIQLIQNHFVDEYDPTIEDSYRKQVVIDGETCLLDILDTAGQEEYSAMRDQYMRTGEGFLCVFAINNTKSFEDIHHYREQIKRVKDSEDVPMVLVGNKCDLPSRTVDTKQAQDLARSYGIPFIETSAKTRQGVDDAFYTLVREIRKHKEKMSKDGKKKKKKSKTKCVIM
Sequence of HRAS wild-type protein (P01112 whole entry): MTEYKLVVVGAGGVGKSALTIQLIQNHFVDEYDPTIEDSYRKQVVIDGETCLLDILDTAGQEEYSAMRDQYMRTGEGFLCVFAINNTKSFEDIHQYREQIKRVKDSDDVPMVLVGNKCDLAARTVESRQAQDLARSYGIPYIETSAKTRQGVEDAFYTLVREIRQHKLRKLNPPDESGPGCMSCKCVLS

SMILES | IC50 ([1]; NCI-H441 cells, 4 days) [nM] | Kd ([4]; 1:1 binding model) [nM] | IC50 [1, 7] [nM] | Kd [4, 10] [nM] | Kd ([4]; Single Cycle Kinetics) [nM] | NRAS /KRAS [2, 5] | HRAS /KRAS [3, 6] | NRAS /KRAS [2, 8] | HRAS /KRAS [3, 9]
CCC(CC)[C@H]1C(=O)N(C)[C@H](C(=O)N(C)C)CC(=O)N(C)[C@@H](COC)C(=O)N[C@@H]([C@@H](C)CC)C(=O)N(C2CC2)CC(=O)N(C)[C@H]2C/C=C\CCN(C2=O)[C@@H](CC2CCCCC2)C(=O)N(C)CC(=O)N[C@@H](CCc2cc(F)c(C(F)(F)F)c(F)c2)C(=O)N2C[C@H](OC(C)C)C[C@H]2C(=O)NC2(CC(C)(C)C2)C(=O)N1C [PP2515] | 384 | 5.1 | – | – | – | A (a compound having 10 or more and less than 20 is denoted as A) | A (a compound having 10 or more and less than 20 is denoted as A) | – | –
CCO[C@@H]1C[C@H]2C(=O)NC3(CCC3)C(=O)N(C)[C@@H](C3CCCC3)C(=O)N(C)[C@H](C(=O)N3CCOCC3)CC(=O)N(C)[C@@H](Cc3ccccc3C#N)C(=O)N[C@@H]([C@@H](C)CC)C(=O)N(C)CC(=O)N(C)[C@H]3CCCCCN(C3=O)[C@@H](Cc3ccc(F)cc3)C(=O)N(C)CC(=O)N[C@@H](CCc3cc(F)c(C(F)(F)F)c(F)c3)C(=O)N2C1 [PP1185] | – | – | 175 | 0.5 | – | – | – | B (a compound having 3 or more and less than 10 is denoted as B) | B (a compound having 3 or more and less than 10 is denoted as B)
CCO[C@@H]1C[C@H]2C(=O)NC3(CCCC3)C(=O)N(C)[C@@H](C3CCCC3)C(=O)N(C)[C@H](C(=O)N(C)C)CC(=O)N(C)[C@@H](CC(C)C)C(=O)N[C@@H]([C@@H](C)CC)C(=O)N(C)CC(=O)N(C)[C@H]3C/C(F)=C\CCN(C3=O)[C@@H](Cc3ccc(C)cc3)C(=O)N(C)CC(=O)N[C@@H](CCc3ccc(C(F)(F)F)c(OC)c3)C(=O)N2C1 [PP3512] | 8.8 | – | – | – | 0.25 | B (a compound having 3 or more and less than 10 is denoted as B) | B (a compound having 3 or more and less than 10 is denoted as B) | – | –
CCC[C@H]1C(=O)N[C@@H](CC(C)C)C(=O)N(CC)CC(=O)N(C)[C@H]2C/C=C\CCN(C2=O)[C@@H](Cc2ccc(C)cc2)C(=O)N(C)CC(=O)N[C@@H](CCc2cc(F)c(C(F)(F)F)c(F)c2)C(=O)N2C[C@H](OCC)C[C@H]2C(=O)NC2(CCC2)C(=O)N(C)[C@@H](C2CCCC2)C(=O)N(C)[C@H](C(=O)N(C)C)CC(=O)N1C [PP2539] | 330 | 4.3 | – | – | – | A (a compound having 10 or more and less than 20 is denoted as A) | B (a compound having 3 or more and less than 10 is denoted as B) | – | –
CCO[C@@H]1C[C@H]2C(=O)NC3(CCC3)C(=O)N(C)[C@@H](C3CCCC3)C(=O)N(C)[C@H](C(=O)N(C)C)CC(=O)N(C)[C@@H](CSC)C(=O)N[C@@H]([C@@H](C)CC)C(=O)N(C)CC(=O)N(C)[C@H]3C/C=C\CCN(C3=O)[C@@H](CC3CCCCC3)C(=O)N(C)CC(=O)N[C@@H](CCc3cc(F)c(C(F)(F)F)c(F)c3)C(=O)N2C1 [PP1463] | – | – | 44.5 | 0.13 | – | – | – | A (a compound having 10 or more and less than 20 is denoted as A) | A (a compound having 10 or more and less than 20 is denoted as A)
CCO[C@@H]1C[C@H]2C(=O)NC3(CCC3)C(=O)N(C)[C@@H](C(CC)CC)C(=O)N(C)[C@H](C(=O)N(C)C)CC(=O)N(C)[C@@H](CC3CC3)C(=O)N[C@@H]([C@@H](C)CC)C(=O)N(C)CC(=O)N(C)[C@H]3C/C=C\CCN(C3=O)[C@@H](Cc3ccc(C(F)(F)F)cc3)C(=O)N(C)CC(=O)N[C@@H](CCc3ccc(Cl)c(Cl)c3)C(=O)N2C1 [PP1219] | – | – | 21.4 | 0.35 | – | – | – | AA (a compound having 20 or more is denoted as AA) | A (a compound having 10 or more and less than 20 is denoted as A)
CCC[C@H]1C(=O)N[C@@H]([C@@H](C)CC)C(=O)N(C)CC(=O)N(C)[C@H]2C/C=C\CCN(C2=O)[C@@H](Cc2ccc(C(F)F)cc2)C(=O)N(C)CC(=O)N[C@@H](CCc2ccc(Cl)c(Cl)c2)C(=O)N2C[C@H](OC(C)C)C[C@H]2C(=O)NC2(CC(C)(C)C2)C(=O)N(C)[C@@H](C(CC)CC)C(=O)N(C)[C@H](C(=O)N(C)C)CC(=O)N1C [PP2535] | 26.8 | 0.54 | – | – | – | AA (a compound having 20 or more is denoted as AA) | A (a compound having 10 or more and less than 20 is denoted as A) | – | –
CCO[C@@H]1C[C@H]2C(=O)NC3(CCC3)C(=O)N(C)[C@@H](C3CCCC3)C(=O)N(C)[C@H](C(=O)N3CCOCC3)CC(=O)N(C)[C@@H](CC)C(=O)N[C@@H]([C@@H](C)CC)C(=O)N(C)CC(=O)N(C)[C@H]3CC[C@@H](C)CN(C3=O)[C@@H](Cc3ccc(C(F)(F)F)cc3)C(=O)N(C)CC(=O)N[C@@H](CCc3ccc(C(F)(F)F)c(Cl)c3)C(=O)N2C1 [PP1378] | – | – | 6.6 | 0.081 | – | – | – | B (a compound having 3 or more and less than 10 is denoted as B) | C (A compound having a KD ratio of 0.1 or more and less than 3 is denoted as C)
CCO[C@@H]1C[C@H]2C(=O)NC3(CC(C)(C)C3)C(=O)N(C)[C@@H](C(CC)CC)C(=O)N(C)[C@H](C(=O)N(C)C)CC(=O)N(C)[C@@H](COC)C(=O)N[C@@H]([C@@H](C)CC)C(=O)N(C)CC(=O)N(C)[C@H]3C/C=C\CCN(C3=O)[C@@H](CC3CCC(F)(F)CC3)C(=O)N(C)CC(=O)N[C@@H](CCc3ccc(C(F)(F)F)c(Cl)c3)C(=O)N2C1 [PP2444] | 32.3 | 0.59 | – | – | – | A (a compound having 10 or more and less than 20 is denoted as A) | A (a compound having 10 or more and less than 20 is denoted as A) | – | –

Continued, in another order:

IC50 ([1]; NCI-H441 cells, 4 days) [nM] | Kd ([4]; 1:1 binding model) [nM] | IC50 [1, 7] [nM] | Kd [4, 10] [nM] | Kd ([4]; Single Cycle Kinetics) [nM] | SMILES | NRAS /KRAS [2, 5] | HRAS /KRAS [3, 6] | NRAS /KRAS [2, 8] | HRAS /KRAS [3, 9]
– | – | 34.4 | 0.26 | – | CCCOC[C@H]1C(=O)N[C@@H]([C@@H](C)CC)C(=O)N(C)CC(=O)N(C)[C@H]2C/C=C\CCN(C2=O)[C@@H](Cc2ccc(C)cc2)C(=O)N(C)CC(=O)N[C@@H](CCc2cc(F)c(C(F)(F)F)c(F)c2)C(=O)N2C[C@H](OCC)C[C@H]2C(=O)NC2(CCCC2)C(=O)N(C)[C@@H](C2CCCC2)C(=O)N(C)[C@H](C(=O)N2CCCC2)CC(=O)N1C [PP1401] | – | – | A (a compound having 10 or more and less than 20 is denoted as A) | A (a compound having 10 or more and less than 20 is denoted as A)
48.7 | – | – | – | 1.1 | CCCO[C@@H]1C[C@H]2C(=O)NC3(CC(C)(C)C3)C(=O)N(C)[C@@H](C3CCCC3)C(=O)N(C)[C@H](C(=O)N(C)CC)CC(=O)N(C)[C@@H](COCC)C(=O)N[C@@H]([C@@H](C)CC)C(=O)N3CCC[C@H]3C(=O)N(C)[C@H]3C/C=C\CCN(C3=O)[C@@H](Cc3ccc(C(F)(F)F)cc3)C(=O)N(C)CC(=O)N[C@@H](CCc3cc(F)c(C(F)(F)F)c(F)c3)C(=O)N2C1 [PP3471] | A (a compound having 10 or more and less than 20 is denoted as A) | A (a compound having 10 or more and less than 20 is denoted as A) | – | –
10.6 | – | – | – | 0.66 | CCC[C@H]1C(=O)N[C@@H]([C@@H](C)CC)C(=O)N2CCC[C@H]2C(=O)N(C)[C@H]2C/C=C\CCN(C2=O)[C@@H](Cc2ccc(C)cc2)C(=O)N(C)CC(=O)N[C@@H](CCc2ccc(C(F)(F)F)c(OC)c2)C(=O)N2C[C@H](OCC)C[C@H]2C(=O)OC2(CCC2)C(=O)N(C)[C@@H](C2CCCC2)C(=O)N(C)[C@H](C(=O)N(C)C)CC(=O)N1C [PP3386] | A (a compound having 10 or more and less than 20 is denoted as A) | B (a compound having 3 or more and less than 10 is denoted as B) | – | –
55.8 | – | – | – | 0.88 | CCO[C@@H]1C[C@H]2C(=O)NC3(CCCC3)C(=O)N(C)[C@@H](C3CCCC3)C(=O)N(C)[C@H](C(=O)N(C)C)CC(=O)N(C)[C@@H]([C@@H](C)OC)C(=O)N[C@@H]([C@@H](C)CC)C(=O)N3CCC[C@H]3C(=O)N(C)[C@H]3C/C=C\CCN(C3=O)[C@@H](Cc3ccc(C)cc3)C(=O)N(C)CC(=O)N[C@@H](CCc3cc(F)c(C(F)(F)F)c(F)c3)C(=O)N2C1 [PP3483] | A (a compound having 10 or more and less than 20 is denoted as A) | A (a compound having 10 or more and less than 20 is denoted as A) | – | –
28.1 | 1.2 | – | – | – | CC[C@H](C)[C@@H]1NC(=O)[C@H](COC)N(C)C(=O)C[C@@H](C(=O)N(C)C)N(C)C(=O)[C@H](C2CCCC2)N(C)C(=O)C2(CC(C)(C)C2)NC(=O)[C@@H]2C[C@H](C)CN2C(=O)[C@H](CCc2ccc(C(F)(F)F)c(OC)c2)NC(=O)CN(C)C(=O)[C@H](Cc2ccc(C)cc2)N2CC/C=C\C[C@@H](C2=O)N(C)C(=O)[C@@H]2C[C@H](C)CN2C1=O [PP2386] | A (a compound having 10 or more and less than 20 is denoted as A) | B (a compound having 3 or more and less than 10 is denoted as B) | – | –
50.4 | – | – | – | 0.97 | CCCO[C@@H]1C[C@H]2C(=O)NC3(CC(C)(C)C3)C(=O)N(C)[C@@H](C3CCCC3)C(=O)N(C)[C@H](C(=O)N(C)CC)CC(=O)N(C)[C@@H](COCC)C(=O)N[C@@H]([C@@H](C)CC)C(=O)N3CCC[C@H]3C(=O)N(C)[C@H]3C/C=C\CCN(C3=O)[C@@H](Cc3ccc(C)cc3)C(=O)N(C)CC(=O)N[C@@H](CCc3ccc(C(F)(F)F)c(Cl)c3)C(=O)N2C1 [PP3463] | A (a compound having 10 or more and less than 20 is denoted as A) | A (a compound having 10 or more and less than 20 is denoted as A) | – | –
